Results published in patent publication US6555533B2, “Use of certain substituted caprolactams in treating tumors” (Novartis AG, priority 1998, dated 2003).
Marks after values point to notes of the source that are not given here.

Experiments:
HCT-116 tumor xenografts = test: HCT-116 colon carcinoma xenograft model; format: in vivo, athymic (nu/nu) mice; settings: 75 mg/kg i.v. 1 time per week (positive control)
Procedure: Positive controls are carried out with 5-fluorouracil administered 1 time per week i.v.

[1] = system: MDA-MB-435 tumor xenografts; test: MDA-MB-435 breast carcinoma xenograft model; format: in vivo, athymic (nu/nu) mice
Procedure: Positive controls are carried out with doxorubicin administered 3 times per week i.v.
The following results were obtained for compounds of Ex.1-Ex.12 tested against MDA-MB-435 tumor xenografts 3×/week for 3 weeks: […]

A549 tumor xenografts = system: A549 tumor xenografts
Excerpt: Utilizing this model, one can measure the ability of test compounds to inhibit the growth of human tumor xenografts growing subcutaneously (s.c.) in athymic nude mice. The histologic tumor types employed were MDA-MB-435 breast, A549 non-small cell lung, HCT-116 colon and PC-3 prostate carcinomas.
A549 non-small cell lung carcinoma xenograft model: Briefly, 10 million cells were implanted s.c. into the right flank of athymic (nu/nu) mice, and were allowed to grow until a mass of approximately 120 mm^3 was established. The test compounds are administered three times per week intravenously (i.v.) for three weeks in 5% dextrose, 10%DMSO in water. The test compounds are administered in dose-response fashion in order to evaluate and document the full potential range of activity (efficacy and toxicity) for a given compound. Positive controls are carried out with mitomycin C administered 3 times per week intraperitioneally (i.p.).
Toxicity was monitored by recording average group body weights twice weekly, and by daily observation of general health. Efficacy was monitored by taking measurements of tumor length, width, and depth weekly using digital calipers coupled to automated data collectors. Mean tumor volume (MTV) at initiation of therapy was subtracted from final MTV in order to express the actual tumor growth during treatment (ΔMTV). Anti-tumor activity was expressed as %T/C (ΔMTV of treated group÷ΔMTV of control group×100). Regressions were calculated using the formula: (T/T0−1)×100%, where T is the tumor volume for the treatment group at the end of the experiment, and T0 is the tumor volume at the beginning of the experiment. Statistical significance was evaluated using a one-tailed Student's t-test (p<0.05).

PC-3 tumor xenografts = test: PC-3 prostate carcinoma xenograft model; format: in vivo, athymic (nu/nu) mice; settings: 15 mg/kg i.v. daily for the first five days (positive control)
[2] = 10 μmol/kg i.v. 3×/week for 3 weeks
[3] = 33 μmol/kg i.v. 3×/week for 3 weeks
[4] = 2 mg/kg i.p. 3 times per week (positive control)

Compound | % T/C [1, 2] | Dead/Total [1, 2] | % T/C [1, 3] | Dead/Total [1, 3] | other results
O=c1[nH]cc(F)c(=O)[nH]1 [5-fluorouracil, reference compound] | – | – | – | – | % T/C (HCT-116 tumor xenografts): 16* %; Dead/Total (HCT-116 tumor xenografts): 0/8; Δ MTV (HCT-116 tumor xenografts): 65 mm^3
CO[C@@H](C(=O)N[C@H]1CC[C@@H](OC(=O)CC2CCCCC2)CNC1=O)[C@H](O)[C@@H](O)[C@H](O)/C=C/C(C)(C)C [Ex. 6, (2R, 3R, 4S, 5R, 6E)-3,4,5-Trihydroxy-2-methoxy-8,8-dimethyl-N-[(3S, 6R)-hexahydro-2-oxo-6-(cyclohexylmethylcarbonyl)oxy-2H-azepin-3-yl]non-6-enamide] | 47* % | 0/8 | 34* % | 0/8 | –
CO[C@@H](C(=O)N[C@H]1CC[C@@H](OC(=O)Cc2ccc(Cl)c(Cl)c2)CNC1=O)[C@H](O)[C@@H](O)[C@H](O)/C=C/C(C)(C)C [Ex. 8, (2R, 3R, 4S, 5R, 6E)-3,4,5-Trihydroxy-2-methoxy-8,8-dimethyl-N-[(3S, 6R)-hexahydro-2-oxo-6-(1-oxo-2-[3,4-dichlorophenyl]ethoxy)-2H-azepin-3-yl]non-6-enamide] | 62% | 0/8 | 67% | 0/8 | –
COc1ccc(CC(=O)O[C@@H]2CC[C@H](NC(=O)[C@H](OC)[C@H](O)[C@@H](O)[C@H](O)/C=C/C(C)(C)C)C(=O)NC2)cc1 [Ex. 9, (2R, 3R, 4S, 5R, 6E)-3,4,5-Trihydroxy-2-methoxy-8,8-dimethyl-N-[(3S, 6R)-hexahydro-2-oxo-6-(1-oxo-2-[4-methoxyphenyl]ethoxy)-2H-azepin-3-yl]non-6-enamide] | 76% | 0/8 | 48* % | 0/8 | –
CO[C@@H](C(=O)N[C@H]1CC[C@@H](OC(=O)/C=C/c2ccccc2)CNC1=O)[C@H](O)[C@@H](O)[C@H](O)/C=C/C(C)(C)C [Ex. 11, (2R, 3R, 4S, 5R, 6E)-3,4,5-Trihydroxy-2-methoxy-8,8-dimethyl-N-[(3S, 6R)-hexahydro-2-oxo-6-(1-oxo-3-phenyl-2-propenoxy)-2H-azepin-3-yl]non-6-enamide] | – | 0/8 | – | 0/8 | Δ MTV [1, 2]: 135 mm^3; Δ MTV [1, 3]: 76 mm^3
CO[C@@]12[C@H](COC(N)=O)C3=C(C(=O)C(C)=C(N)C3=O)N1C[C@@H]1N[C@@H]12 [Mitomycin C, reference compound] | – | – | – | – | % T/C (A549 tumor xenografts; [4]): 20* %; Δ MTV (A549 tumor xenografts; [4]): 15 mm^3; Dead/Total (A549 tumor xenografts; mouse, in vivo): 0/8
CC(=O)O[C@H]1C(=O)[C@@]2(C)[C@H]([C@H](OC(=O)c3ccccc3)[C@]3(O)C[C@H](OC(=O)[C@H](O)[C@@H](NC(=O)c4ccccc4)c4ccccc4)C(C)=C1C3(C)C)[C@]1(OC(C)=O)CO[C@@H]1C[C@@H]2O [Paclitaxel, reference compound] | – | – | – | – | % regression (PC-3 tumor xenografts): 100 regression* %; Dead/Total (PC-3 tumor xenografts): 3/8; Δ MTV (PC-3 tumor xenografts): −103 mm^3
